Here are results for one compound from ChEMBL document CHEMBL1137394, “Configurationally restricted bismacrocyclic CXCR4 receptor antagonists” (J Med Chem, 2006).

As a reminder, the EC50 is the concentration needed to bring the measured effect to its halfway point. For orientation: CC50 means the concentration at which the toxic effect on the cells reaches its halfway point. A lower CC50 goes with harm at low concentration.

The source made the active and inactive calls. The calls are words filed in the database; no cut-off is given here.

For test [1], the target named is C-X-C chemokine receptor type 4 (Homo sapiens) (UniProt P61073). As to the kind of experiment: Binding affinity to CXCR4 by flow cell cytometry. It is filed as functional.
Test [2] relates to Human immunodeficiency virus 1. Put plainly: Antiviral activity against HIV1 3B assessed as reduction in cytopathic effect in MT4 cells. Conditions: Human immunodeficiency virus 1, 3B. It is filed as functional, organism-based.
The subject of test [3] is Human immunodeficiency virus 2. As to the kind of experiment: Antiviral activity against HIV2 ROD assessed as reduction in cytopathic effect in MT4 cells. It counts as functional, organism-based. Particulars: Human immunodeficiency virus 2, ROD. For orientation: Damage to the host cells serves as the signal in cytopathic effect assays.
The subject of test [4] is MT4. Put plainly: Cytotoxicity against human MT4 cells. It counts as functional.
Test [5] relates to MT4. Put plainly: Selectivity index, EC50 against HIV1 3B/CC50 against MT4 cells. It counts as functional, Human immunodeficiency virus 1.
For test [6], the system named is MT4. Put plainly: Selectivity index, EC50 against HIV2 ROD/CC50 against MT4 cells. It counts as functional, Human immunodeficiency virus 2.

C-X-C chemokine receptor type 4 (Homo sapiens), sequence (P61073 whole entry): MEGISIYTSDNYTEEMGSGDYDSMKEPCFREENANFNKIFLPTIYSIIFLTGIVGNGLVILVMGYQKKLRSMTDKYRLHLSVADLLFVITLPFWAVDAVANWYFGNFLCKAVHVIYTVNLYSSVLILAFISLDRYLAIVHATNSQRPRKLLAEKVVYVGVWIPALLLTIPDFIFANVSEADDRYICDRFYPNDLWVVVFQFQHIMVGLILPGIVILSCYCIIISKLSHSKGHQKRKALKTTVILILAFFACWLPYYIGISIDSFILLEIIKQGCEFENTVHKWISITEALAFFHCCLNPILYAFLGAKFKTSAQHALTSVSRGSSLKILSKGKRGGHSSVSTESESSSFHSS

Take `c1cc(CN2CCCN3CCN(CCCNCC2)CC3)ccc1CN1CCCN2CCN(CCCNCC1)CC2`: the result in test [1] was Active. The half-maximal effective concentration (EC50) turned out to be 6.98 µM in test [2] and 23.2 µM in test [3]. In test [4], this compound returned a CC50 of more than 225 µM. The values for the Selectivity index in test [5] and in test [6] were more than 32 and more than 10, respectively.
